Here are results for 10 compounds from patent US10882844B2, “Compounds useful as immunomodulators” (Bristol-Myers Squibb Company, priority 2016, dated 2021).

Read-outs that look alike come from different tables or passages of the source.

This test addresses PD-1/PD-L1 (Homo sapiens (Human), UniProt Q9NZQ7). Put plainly: PD-1/PD-L1 Homogenous Time-Resolved Fluorescence (HTRF) binding assay. Conditions: PD-1-Ig / PD-L1-His HTRF, read-out: Range or IC50. The source says:
The ability of the compounds of formula (I) to bind to PD-L1 was investigated using a PD-1/PD-L1 Homogenous Time-Resolved Fluorescence (HTRF) binding assay.
Homogenous Time-Resolved Fluorescence (HTRF) binding assay.
The interaction of PD-1 and PD-L1 can be assessed using soluble, purified preparations of the extracellular domains of the two proteins. The PD-1 and PD-L1 protein extracellular domains were expressed as fusion proteins with detection tags, for PD-1, the tag was the Fc portion of Immunoglobulin (PD-1-Ig) and for PD-L1 it was the 6 histidine motif (PD-L1-His). All binding studies were performed in an HTRF assay buffer consisting of dPBS supplemented with 0.1% […] bovine serum albumin and 0.05% (v/v) Tween-20. For the h/PD-L1-His binding assay, inhibitors were pre-incubated with PD-L1-His (10 nM final) for 15 m in 4 μl of assay buffer, followed by addition of PD-1-Ig (20 nM final) in 1 μl of assay buffer and further incubation for 15 m. HTRF detection was achieved using europium crypate-labeled anti-Ig (1 nM final) and allophycocyanin (APC) labeled anti-His (20 nM final). Antibodies were diluted in HTRF detection buffer and 5 μl was dispensed on top of the binding reaction. The reaction mixture was allowed to equilibrate for 30 minutes and the resulting signal (665 nm/620 nm ratio) was obtained using an EnVision fluorometer. Additional binding assays were established between the human proteins PD-1-Ig/PD-L2-His (20 & 5 nM, respectively) and CD8O-His/PD-L1-Ig (100 & 10 nM, respectively).
Recombinant Proteins: Human PD-1 (25-167) with a C-terminal human Fc domain of immunoglobulin G (Ig) epitope tag [hPD-1 (25-167)-3S-IG] and human PD-L1 (18-239) with a C-terminal His epitope tag [hPD-L1(18-239)-TVMV-His] were expressed in HEK293T cells and purified sequentially by ProteinA affinity chromatography and size exclusion chromatography. Human PD-L2-His and CD80-His was obtained through commercial sources.
The table below lists the IC50 values for representative examples of this disclosure measured in the PD-1/PD-L1 Homogenous Time-Resolved Fluorescence (HTRF) binding assay. Ranges are as follows: A=0.18 nM-0.99 nM; B=1.0 nM-5.0 nM; C=5.01 nM-10.1 nM; D=10.2 nM-200 nM; E=201 nM→10 uM
A general note: TR-FRET usually uses a lanthanide donor and a delayed reading to cut background.

PD-1/PD-L1, sequence (Q9NZQ7 other isoform, or with tags, fused parts or gaps): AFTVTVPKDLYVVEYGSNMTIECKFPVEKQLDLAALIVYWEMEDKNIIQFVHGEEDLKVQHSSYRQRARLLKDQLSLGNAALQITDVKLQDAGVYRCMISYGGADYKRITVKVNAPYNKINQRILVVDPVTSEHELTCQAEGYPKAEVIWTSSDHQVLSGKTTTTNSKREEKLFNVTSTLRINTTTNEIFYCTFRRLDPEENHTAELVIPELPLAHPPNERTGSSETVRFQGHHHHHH

Broadly, the IC50 is the midpoint of a concentration-inhibition curve. Take `Cc1c(COc2cc(OCc3cncc(C#N)c3)c(CN3CCCC[C@H]3C(=O)O)cc2Cl)cccc1-c1ccc2oc(C34CC(N)(C3)C4)nc2c1` [Example 1015, (S)-1-(4-((3-(2-(3-aminobicyclo[1.1.1]pentan-1-yl)benzo[d]oxazol-5-yl)-2-methylbenzyl)oxy)-5-chloro-2-((5-cyanopyridin-3-yl)methoxy)benzyl)piperidine-2-carboxylic Acid]: the concentration for half-maximal inhibition (IC50) (value given as range class) was in the range of 5.01 to 10.1 nM.
On the same count and under the same terms, next, `Cc1c(COc2cc(OCc3cncc(C#N)c3)c(CN(C)[C@@](C)(CO)C(=O)O)cc2Cl)cccc1-c1ccc2oc(N3CCN(C)CC3)nc2c1` [Example 2017, (S)-2-((5-chloro-2-((5-cyanopyridin-3-yl)methoxy)-4-((2-methyl-3-(2-(4-methylpiperazin-1-yl)benzo[d]oxazol-5-yl)benzyl)oxy)benzyl)(methyl)amino)-3-hydroxy-2-methylpropanoic Acid]: 0.18 to 0.99 nM.
On to `CCC[C@H](NCc1cc(Cl)c(OCc2cccc(-c3ccc4oc(N5CCN(C)CC5)nc4c3)c2C)cc1OCc1cncc(C#N)c1)C(=O)O` [Example 2012, (S)-2-((5-chloro-2-((5-cyanopyridin-3-yl)methoxy)-4-((2-methyl-3-(2-(4-methylpiperazin-1-yl)benzo[d]oxazol-5-yl)benzyl)oxy)benzyl)amino)pentanoic Acid], for which, where the note is “value given as number”, the IC50 came out at 7.2 nM.
In the case of `Cc1c(COc2cc(OCc3cncc(C#N)c3)c(CN3CCCC[C@H]3C(=O)O)cc2Cl)cccc1-c1ccc2oc(C3CCC(C(=O)O)CC3)nc2c1` (single isomer, unassigned) [Example 1025], the IC50 (value given as range class) was 0.18 to 0.99 nM.
For `Cc1c(COc2cc(OCc3cncc(C#N)c3)c(CN3CCCC[C@H]3C(=O)O)cc2Cl)cccc1-c1ccc2oc(C3CCN(C(C)C)CC3)nc2c1` [Example 1013, (S)-1-(5-chloro-2-((5-cyanopyridin-3-yl)methoxy)-4-((3-(2-(1-isopropylpiperidin-4-yl)benzo[d]oxazol-5-yl)-2-methylbenzyl)oxy)benzyl)piperidine-2-carboxylic Acid], the IC50 (value given as range class) was 1 to 5 nM.
On to `Cc1c(COc2cc(OCc3cncc(C#N)c3)c(CN3CCCC[C@H]3C(=O)O)cc2Cl)cccc1-c1ccc2oc(C3CC4CCC(C3)N4)nc2c1` (stereo partly drawn) [Example 1006, (2S)-1-(4-((3-(2-(8-azabicyclo[3.2.1]octan-3-yl)benzo[d]oxazol-5-yl)-2-methylbenzyl)oxy)-5-chloro-2-((5-cyanopyridin-3-yl)methoxy)benzyl)piperidine-2-carboxylic Acid], for which the IC50 (value given as range class) was in the range of 1 to 5 nM.
Regarding `Cc1c(COc2cc(OCc3cncc(C#N)c3)c(CN3CCCC[C@H]3C(=O)O)cc2Cl)cccc1-c1ccc2oc(C3CCN(C4CC4)CC3)nc2c1` [Example 1005, (S)-1-(5-chloro-2-((5-cyanopyridin-3-yl)methoxy)-4-((3-(2-(1-cyclopropylpiperidin-4-yl)benzo[d]oxazol-5-yl)-2-methylbenzyl)oxy)benzyl)piperidine-2-carboxylic Acid], the IC50 (value given as range class) lay within 1 to 5 nM.
The same measure, in the same setting: next, `COC(=O)C1CCC(c2nc3cc(-c4cccc(COc5cc(OCc6cncc(C#N)c6)c(CN6CCCC[C@H]6C(=O)O)cc5Cl)c4C)ccc3o2)CC1` (stereo partly drawn) [Example 1024, (S)-1-(5-chloro-2-((5-cyanopyridin-3-yl)methoxy)-4-((3-(2-(4-(methoxycarbonyl)cyclohexyl)benzo[d]oxazol-5-yl)-2-methylbenzyl)oxy)benzyl)piperidine-2-carboxylic acid]: 1 to 5 nM; `Cc1c(COc2cc(OCc3cncc(C#N)c3)c(CN3CCCC[C@H]3C(=O)O)cc2Cl)cccc1-c1ccc2oc(C3(C)CCNCC3)nc2c1` [Example 1011, (S)-1-(5-chloro-2-((5-cyanopyridin-3-yl)methoxy)-4-((2-methyl-3-(2-(4-methylpiperidin-4-yl)benzo[d]oxazol-5-yl)benzyl)oxy)benzyl)piperidine-2-carboxylic Acid]: 1 to 5 nM.
With `Cc1c(COc2cc(OCc3cncc(C#N)c3)c(CNC(CO)CO)cc2Cl)cccc1-c1ccc2oc(N3CCN(C)CC3)nc2c1` [Example 2008], the IC50 (value given as range class) fell in the range of 1 to 5 nM.
